Reference: EP3235511A1, “SULPHONAMIDE COMPOUNDS FOR USE IN THE TREATMENT OF HHV-8-ASSOCIATED DISEASES” (UNIVERSITA' DEGLI STUDI DI CAGLIARI, priority 2016, dated 2017)
Converted amounts (≈) assume the structure as drawn. Where two headings read alike, the source gives them in different places.

Legend:
[1] = molecular target: T1, MDM2-p53 complex (Homo sapiens, UniProt Q00987); assay: ELISA-based P53-MDM2 binding assay
T1 construct: purchased Sigma
Description: In short, 96-well ELISA micro-plates (from Greiner Bio One, Austria) were coated for incubation overnight with 2 µg/mL p53 (human recombinant from Sigma) in PBS at 4 °C. The next day, the coating buffer was removed and the plates were incubated with Chemi-Blocker blocking buffer (from Merck-Millipore, Italy) for 2 hours at room temperature to block non-specific protein binding sites on the plate. […] The compounds under test were dissolved in DMSO (dimethyl sulfoxide, 5 mg/mL stock solution) and diluted in blocking buffer to obtain a final concentration of 50 µg/mL. The total incubation time of GST-MDM2 was 1 h. In order to evaluate the possible interactions of the compounds of the invention with, alternately, p53 and/or MDM2, the tests were conducted in three ways: a) pre-incubation with p53: the compounds were added to the coated micro-wells 30 min. before the GST-MDM2; b) pre-incubation with MDM2: the compounds were added to the GST-MDM2 solution for 30 minutes before adding to the wells; c) incubation after the formation of the p53-MDM2 complex: the compounds were added to the wells 30 minutes after treatment of GST-MDM2. After incubation, the plates were washed 4 times with PBST to remove the unbound MDM2 and incubated with a specific rabbit anti-GST monoclonal antibody (Sigma) diluted in 1/2000 blocking buffer for 1 h, followed by washing and incubation with a secondary immunoglobulin antibody conjugated with 1/200 anti-rabbit (horseradish) HR-peroxidase for 1 h (goat anti-rabbit IgG-HRP, Sigma). […] The absorbance was measured with a Microtiter plate reader (Model 680, from Bio-Rad, Hercules, CA) equipped with a 450 nm filter and the respective luminescence units (RLU) were measured. The inhibition percentage of the p53-MDM2 complex was calculated as follows: […]
Data are expressed as µg/mL ± SE average of three independent experiments.

[2] = system: HHV 8 in latent stage; assay: Detection of latent HHV 8 DNA by RT-PCR in BC3 cells; format: cell-based; conditions: BC-3, 144 h, 6 days of culture, drug 100 µM, read-out: inhibition of viral DNA (antiviral activity)
Description: The antiviral activity of the sulphonamide compounds of the present invention was investigated using two different types of tests. In the first one, the DNA of HHV 8 in latent stage was detected by RT-PCR (Real Time- Polymerase Chain Reaction) (see Fig. 1) and in the second one, the LANA antigen was tested using a flow cytometric assay.

[3] = in vitro; conditions: human, thp-1 cells
Description: The THP-1 cells were purchased from Life Technologies (UK) and were cultured in RPMI 1640 medium with 10% fetal bovine serum (FBS).
The cytotoxicity of the compounds under test was assessed by measuring the effect on the cell morphology and the cell viability in vitro. Cell mono-layers were prepared in 24-well tissue culture plates and exposed to various concentrations of the compounds being tested.
The plates were controlled by optical microscopy after 24, 48 and 72 h. Cytotoxicity was evaluated as morphologic changes (for example, rounding, contractions, detachments). The cell viability was determined by means of a tetrazolium-based colorimetric method using the compound 3-(4,5-dimethylthiazol-2-yl)-2,5-diphenyl-tetrazolium bromide (MTT). The cytotoxic dose of 50% (CD50) is the concentration of the compound which reduces the absorbency of the control sample by 50%.

[4] = Cytotoxicity (MTT cell viability) on HUVEC primary cells; format: cell-based; conditions: human
Description: (§1) A stock of human HUVEC umbilical cord primary cells (Invitrogen Life Technologies, UK) was cultured in a culture medium M200 (Gibco, Life Technologies, UK) with low serum growth supplement (LSGS, Invitrogen Life Technologies, UK). The HUVEC cells were always kept in a semi-confluent state and were sub-cultured at least once a week. Prior to testing, the cells were sub-cultured no more than 3-5 times. The BC3 cells permanently infected with HHV 8 were cultured in a RPMI 1640 medium supplemented with a 10% fetal calf serum (FCS) (Invitrogen Life Technologies, UK). The BC3 cells were used to produce 100x concentrated stocks of HHV 8, as described in the literature. The pellets of the virus was suspended in RPMI, filtered through a 0.22 µm filter and stored at -80 °C until use. The quantitative analysis of viral genomes present in the stock preparation was obtained by a real-time polymerase chain reaction (qPCR). […] For infection of cells, approximately 5.0 x 10^4 HUVEC cells/mL were seeded in 12 multi-well plates. The cells were infected with HHV 8, concentrated to a multiplicity of at least 10-20 genomes per cell in an M200 containing 2 µg/mL polibrene (esadimetrin bromide) for 2 hours at 37 °C. […] Only cell mono-layers with at least 70-80% of HHV 8 infected cells were used for the experiments.

[5] = Cytotoxicity (MTT cell viability) on BC3 cells; format: cell-based; conditions: human
Description: as §1

[6] = system: KSHV virus; conditions: latent stage; cited from earlier work
[7] = system: KSHV virus; conditions: lytic stage; cited from earlier work
[8] = read-out: inhibition of MDM2-p53 complex formation

T1 sequence (Q00987 whole entry, one chain of several): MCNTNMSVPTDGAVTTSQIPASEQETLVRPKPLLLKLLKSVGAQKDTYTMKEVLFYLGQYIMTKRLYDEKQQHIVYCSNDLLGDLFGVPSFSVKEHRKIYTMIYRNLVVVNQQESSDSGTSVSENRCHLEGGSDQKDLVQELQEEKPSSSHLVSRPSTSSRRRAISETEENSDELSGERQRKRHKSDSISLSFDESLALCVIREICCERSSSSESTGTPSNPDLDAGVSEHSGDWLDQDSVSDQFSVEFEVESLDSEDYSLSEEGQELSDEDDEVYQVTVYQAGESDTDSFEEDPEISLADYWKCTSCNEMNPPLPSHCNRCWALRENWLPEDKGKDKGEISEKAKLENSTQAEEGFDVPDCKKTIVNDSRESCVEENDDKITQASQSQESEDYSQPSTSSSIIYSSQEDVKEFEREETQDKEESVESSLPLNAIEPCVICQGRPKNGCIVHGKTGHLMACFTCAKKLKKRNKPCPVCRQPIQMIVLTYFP

| Compound | inhibition at 100 µM [2] | Action on the latent virus [6] | Action on the lytic virus [7] | further results |
| --- | --- | --- | --- | --- |
| Nc1ccc(S(N)(=O)=O)cc1 [SA4, sulphanilamide] | 92% |  |  | inhibition at 50 µg/mL [1, 8]: 50% |
| Nc1ccc(S(=O)(=O)Nc2nccs2)cc1 [ST5, sulfathiazole] | 88.5% |  |  | CC50 [3]: ~30 µg/mL (≈ 117 µM); inhibition at 50 µg/mL ([1]; added to the ELISA wells 60 minutes after the complex had formed, 50 µg/mL, p = < 0.01, read-out: breaking down the complex already formed): ~48%; inhibition at 50 µg/mL ([1]; compound added before the formation of the complex, 50 µg/mL, read-out: inhibition of MDM2-p53 complex formation): ~70%; CC50 [4]: ~250 µg/mL (≈ 979 µM); CC50 [5]: 100 µg/mL (≈ 393 µM) |
| Nc1nc2c(ncn2COCCO)c(=O)[nH]1 [Acyclovir] |  | no inhibition | inhibition |  |
| [H]/N=C(/N)NS(=O)(=O)c1ccc(N)cc1 [SG3, sulphaguanidine] | 52.3% |  |  | CC50 [3]: ~125 µg/mL (≈ 583 µM); CC50 [4]: ~500 µg/mL (≈ 2330 µM); CC50 [5]: 100 µg/mL (≈ 467 µM) |
| Cc1cc(NS(=O)(=O)c2ccc(N)cc2)no1 [BC6, sulfamethoxazole] | 93% |  |  | inhibition at 50 µg/mL [1, 8]: 56% |
| CC1(C)[C@@H](O[C@H]2O[C@H](C(=O)O)[C@@H](O)[C@H](O)[C@H]2O[C@@H]2O[C@H](C(=O)O)[C@@H](O)[C@H](O)[C@H]2O)CC[C@]2(C)[C@H]3C(=O)C=C4[C@@H]5C[C@@](C)(C(=O)O)CC[C@]5(C)CC[C@@]4(C)[C@]3(C)CC[C@@H]12 [Glycyrrhizic acid] |  | Apoptosis | inhibition |  |
| O=C(O)P(=O)(O)O [Foscarnet] |  | no inhibition | inhibition |  |
